Assay results reported in patent publication US20090264415A2 (priority 2004, published 2009).

Key:
[1] = test system: peripheral blood mononuclear cells (PBMC) stimulated with allogeneic PBMC or EBV-transformed human B cells (RPMI1788); assay: Mixed lymphocyte reaction (MLR) assay; assay type: cell-based; settings: Homo sapiens, RPMI-1788; 50% suppression of the MLR, [3H]-thymidine incorporation; read-out: MLR
Outline: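 Compounds, held as 10 mM DMSO stocks and diluted in culture medium, were added to PBMC stimulated by 30 Gy-irradiated allogeneic PBMC or RPMI1788 cells. Proliferation was read as [3H]-thymidine uptake (1 μCi, final 16 h) after 5 days at 37° C. Inhibition was derived from cpm.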

[2] = test system: production of human TNF-α by PBMC in response to LPS; assay: TNF-α assay (LPS-stimulated PBMC, sandwich ELISA); assay type: cell-based; settings: Homo sapiens, PBMC; LPS 1 μg/ml, 72 hours; read-out: TNF α
Outline: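 Human PBMC isolated from heparinised blood by density gradient (10^6 cells/ml) stimulated with LPS at 1 μg/ml final, with test compound at 0.1, 1 and 10 μM, 72 h at 37° C, 5% CO2. Supernatant TNF-α quantified by sandwich ELISA against recombinant standard curve; % suppression calculated.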

[3] = test system: phosphodiesterase-4 (PDE-4) extract from U937 cells; assay: Phosphodiesterase-4 inhibiting activity (isotopic two-step method); assay type: biochemical

melting point [°C]	Structure (SMILES)	further results
> 330	Nc1nc2ccc(Cl)nc2c(=O)[nH]1	
317 to 319	CC(=O)Nc1nc2ccc(Cl)nc2c(=O)[nH]1	
233	CCOc1nc(NC(C)=O)nc2ccc(Cl)nc12	
191	CCCOc1nc(NC(C)=O)nc2ccc(Cl)nc12	
244	CC(=O)Nc1nc(OC(C)C)c2nc(Cl)ccc2n1	
168	CC(=O)Nc1nc(OCC(C)C)c2nc(Cl)ccc2n1	
143 to 144	CCC(C)Oc1nc(NC(C)=O)nc2ccc(Cl)nc12 (stereo not drawn)	
174	CCCCCOc1nc(NC(C)=O)nc2ccc(Cl)nc12	
188 to 189	CCOc1nc(N)nc2ccc(-c3ccc(F)cc3)nc12	
196 to 197	CC(=O)Nc1nc(OC(C)C)c2nc(-c3ccc(F)cc3)ccc2n1	
147 to 148	CCCCOc1nc(N)nc2ccc(-c3ccccc3F)nc12	
160 to 161	CCCCOc1nc(N)nc2ccc(-c3cccc(F)c3)nc12	
170	CCCCOc1nc(NC(C)=O)nc2ccc(-c3ccc(F)cc3)nc12	
172 to 173	CCCCOc1nc(N)nc2ccc(-c3ccc(F)cc3)nc12	
136 to 137	CCCCCOc1nc(N)nc2ccc(-c3ccccc3F)nc12	
142 to 143	CCCCCOc1nc(N)nc2ccc(-c3cccc(F)c3)nc12	

Continued, molecule first:

Structure (SMILES)	melting point [°C]	further results
NC(=O)c1nc(Cl)ccc1N	176 to 177	
CCOc1nc(N)nc2ccc(-c3ccccc3F)nc12	182	
CCOc1nc(N)nc2ccc(-c3cccc(F)c3)nc12	174	
CC(C)Oc1nc(N)nc2ccc(-c3cccc(F)c3)nc12	200 to 201	
CC(C)Oc1nc(N)nc2ccc(-c3ccc(F)cc3)nc12	191 to 192	
CC(C)COc1nc(N)nc2ccc(-c3ccccc3F)nc12	165	
CC(C)COc1nc(N)nc2ccc(-c3cccc(F)c3)nc12	185	
CC(C)COc1nc(N)nc2ccc(-c3ccc(F)cc3)nc12	196	
CCC(C)Oc1nc(N)nc2ccc(-c3ccccc3F)nc12 (stereo not drawn)	159	
CCC(C)Oc1nc(N)nc2ccc(-c3cccc(F)c3)nc12 (stereo not drawn)	158 to 159	
CCC(C)Oc1nc(N)nc2ccc(-c3ccc(F)cc3)nc12 (stereo not drawn)	148	
Nc1nc(OCc2ccccc2)c2nc(-c3ccccc3F)ccc2n1	200 to 202	
Nc1nc(OCc2ccccc2)c2nc(-c3cccc(F)c3)ccc2n1	199 to 200	
Nc1nc(OCc2ccccc2)c2nc(-c3ccc(F)cc3)ccc2n1	225	
COc1ccc(-c2ccc3nc(N)nc(N4CCN(C(=O)Nc5cccc(Cl)c5)CC4)c3n2)cc1O [Example 212]		IC50 [1]: 40 nM; IC50 [2]: 900 nM; PDE-4 (% inhibition) ([3]; @ 0.9 μM): 43% @ 0.9 μM
CCOc1cc(-c2ccc3ncnc(N4CCN(C(=O)Nc5cccc(Cl)c5)CC4)c3n2)ccc1OC [Example 213, 4-[N-(3-chloro-phenylcarbamoyl)-piperazin-1-yl]-6-(3-ethoxy-4-methoxy-phenyl)-pyrido[3,2-d]pyrimidine]		IC50 [1]: 57 nM; IC50 [2]: 60 nM; PDE-4 (% inhibition) ([3]; @ 0.06 μM): 78% @ 0.06 μM
COc1ccc(-c2ccc3ncnc(N4CCN(C(=O)Nc5cccc(Cl)c5)CC4)c3n2)cc1OC(C)C [Example 214, 4-[N-(3-chloro-phenylcarbamoyl)-piperazin-1-yl]-6-(3-isopropoxy-4-methoxy-phenyl)-pyrido[3,2-d]pyrimidine]		IC50 [1]: 50 nM; IC50 [2]: 300 nM; PDE-4 (% inhibition) ([3]; @ 0.3 μM): 61% @ 0.3 μM
COc1ccc(-c2ccc3nc(N)nc(NCCNC(=O)Nc4cccc(C)c4)c3n2)cc1OC [Example 261, 2-amino-4-[(3-methylphenylcarbamoyl)-ethylenediamine-1-N-yl]-6-(3,4-dimethoxyphenyl)-pyrido[3,2-d]pyrimidine]		IC50 [1]: 80 nM; IC50 [2]: 800 nM; PDE-4 (% inhibition) ([3]; @ 10 μM): 86% @ 10 μM
